Broadly, the TGI is the concentration at which net growth stops. Read a low TGI as more potent growth arrest. The term GI50 denotes the concentration at which growth is held to half of that of the control.

This is an account of results in PubChem BioAssay (NCI).

Among the test systems are SK-OV-3 ovarian; SR leukemia; EKVX NSCLC; RPMI-8226 leukemia; SF-295 CNS; HS 578T breast; NCI/ADR-RES ovarian; SNB-19 CNS; UACC-257 melanoma; UACC-62 melanoma.
Experiment in all cases: DTP human tumour cell line panel, 48 h

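Tested at 5 concentrations; 48 h exposure; 96-well plates; endpoints linearly interpolated, else capped at highest concentration. GI50: concentration for 50% inhibition of growth. Definition used: TGI = concentration required for complete inhibition of growth.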

In the case of `CC(=O)NC1C(OCc2ccccc2)OC(CO)C(O)C1OCC(=O)N1CCCC1C(=O)N[C@@H](CCC(=O)NCCCCNc1c2ccccc2nc2cccc([N+](=O)[O-])c12)C(N)=O` (stereo partly specified), the total growth inhibition concentration (TGI) is above 100 µM in the assay with SK-OV-3 ovarian; above 100 µM in the assay on SR leukemia; above 100 µM in the assay on EKVX NSCLC; above 100 µM in the assay with RPMI-8226 leukemia; above 100 µM in the assay with SF-295 CNS; 74.8 µM with HS 578T breast. Besides, the TGI in the assay on NCI/ADR-RES ovarian is above 100 µM; in the assay on SNB-19 CNS, 62.4 µM.
In the case of `O=c1[nH]c(Nc2ccccc2)nc2c1ncn2CC(O)CSCCO` (stereo unspecified), the TGI in the assay with SK-OV-3 ovarian, in the assay on SR leukemia, in the assay on EKVX NSCLC, with RPMI-8226 leukemia, in the assay with SF-295 CNS and in the assay on HS 578T breast was above 100 µM each time. Moreover, the concentration for total growth inhibition (TGI) in the assay on NCI/ADR-RES ovarian, with UACC-257 melanoma, in the assay with SNB-19 CNS and in the assay on UACC-62 melanoma was above 100 µM each time.
Regarding `COC(=O)Cc1cc(O)c2c(c1O)C(=O)c1ccccc1C2=O`, the TGI was above 100 µM in the assay with SK-OV-3 ovarian; above 100 µM with SR leukemia; above 100 µM in the assay with EKVX NSCLC; above 100 µM in the assay with RPMI-8226 leukemia; above 72.4 µM in the assay with SF-295 CNS; above 84.5 µM in the assay on HS 578T breast. In addition, the concentration for total growth inhibition (TGI) in the assay with NCI/ADR-RES ovarian was above 100 µM; in the assay with UACC-257 melanoma, above 100 µM; with SNB-19 CNS, above 85.5 µM; in the assay on UACC-62 melanoma, above 100 µM.
As for `Fc1ccc(C(OCCN2CCN(CCCc3ccccc3)CC2)c2ccc(F)cc2)cc1`, the TGI in the assay on SK-OV-3 ovarian stood at 18.9 µM; with SR leukemia, 10 µM; in the assay on EKVX NSCLC it was 15.2 µM; with RPMI-8226 leukemia, 8.63 µM; in the assay with SF-295 CNS it was 15.2 µM; with HS 578T breast, 10.1 µM. Further, the total growth inhibition concentration (TGI) stood at 12.6 µM in the assay on NCI/ADR-RES ovarian, 8.62 µM with UACC-257 melanoma, 14.5 µM in the assay on SNB-19 CNS and 21.4 µM in the assay on UACC-62 melanoma.
With `CC1CC[C@@]2(OC1)OC1C[C@H]3[C@@H]4CC=C5CC(OC6OC(CO)C(OC7OC(CO)C(O)C(OC8OCC(O)C(O)C8O)C7OC7OC(CO)C(OC8OC(C)C(OC9OC(C)C(O)C(O)C9O)C(O)C8O)C(O)C7O)C(O)C6O)CCC5(C)[C@H]4CCC3(C)C1[C@@H]2C` (stereo partly specified), the TGI in the assay on SK-OV-3 ovarian was 17.3 µM; in the assay on SR leukemia, 50 µM; in the assay on EKVX NSCLC it was 15.3 µM; with RPMI-8226 leukemia, 25 µM; in the assay on SF-295 CNS, 13.8 µM; in the assay with HS 578T breast, 17.8 µM. Besides, the TGI turned out to be 17.8 µM with NCI/ADR-RES ovarian, 18.1 µM with UACC-257 melanoma, 11.6 µM in the assay with SNB-19 CNS and 17.7 µM in the assay on UACC-62 melanoma.
In the case of `COC(=O)[C@H]1C=NN[C@@H]1C(=O)N1[C@H]2CC3CC[C@@]2(CS1(=O)=O)C3(C)C`, the concentration for total growth inhibition (TGI) in the assay with SK-OV-3 ovarian, in the assay with SR leukemia, in the assay with EKVX NSCLC, in the assay with RPMI-8226 leukemia, in the assay on SF-295 CNS and with HS 578T breast was above 100 µM in each case. Besides, the TGI with NCI/ADR-RES ovarian, in the assay with UACC-257 melanoma and in the assay on SNB-19 CNS was above 100 µM each time.
As for `O=C(/C=C(/C=C/c1ccc2[nH]ccc2c1)OB(F)F)/C=C/c1ccc2[nH]ccc2c1`, the GI50 in the assay with SK-OV-3 ovarian is 3.43 µM; in the assay with SR leukemia, 0.451 µM; in the assay with EKVX NSCLC, 3.17 µM; in the assay with SF-295 CNS, 2.28 µM; in the assay with HS 578T breast it was 3.96 µM; with NCI/ADR-RES ovarian, 2.7 µM. For the same compound, the GI50 was 12.2 µM in the assay on UACC-257 melanoma and 1.85 µM in the assay on UACC-62 melanoma. The TGI with SK-OV-3 ovarian was above 100 µM; in the assay with SR leukemia, above 100 µM; in the assay with EKVX NSCLC it was 86.9 µM; with SF-295 CNS it was above 100 µM; with HS 578T breast it was above 100 µM; in the assay with NCI/ADR-RES ovarian, above 100 µM. Besides, the TGI in the assay on UACC-257 melanoma was above 100 µM; with UACC-62 melanoma it was 5.02 µM.
As for `CC(=O)Nc1ccc2c(C)c3c(nc2n1)[nH]c1ccccc13`, the TGI with SR leukemia turned out to be 64.9 µM; in the assay on EKVX NSCLC it was 98.1 µM; with RPMI-8226 leukemia it was 55.2 µM; with SF-295 CNS, 78.8 µM; with HS 578T breast it was 70 µM; in the assay on NCI/ADR-RES ovarian it was 62.1 µM. Further, the total growth inhibition concentration (TGI) in the assay with UACC-257 melanoma is above 100 µM; with UACC-62 melanoma it was 60.9 µM.
For `c1ncn(C23C4C5C6C4C2C6C53)n1` (stereo unspecified), the total growth inhibition concentration (TGI) in the assay on SK-OV-3 ovarian, in the assay with SR leukemia, with EKVX NSCLC, with RPMI-8226 leukemia, in the assay with SF-295 CNS and with HS 578T breast was above 100 µM each time. For the same compound, the TGI in the assay with NCI/ADR-RES ovarian, in the assay with UACC-257 melanoma and in the assay on SNB-19 CNS was above 100 µM each time.
Take `C[C@@H]1OC(=O)C[C@H]2CC(=O)N(CCC3CN(C(=O)OCc4ccccc4)c4ccccc43)C[C@@H]21` (stereo partly specified): the TGI with SK-OV-3 ovarian, with EKVX NSCLC, with RPMI-8226 leukemia, in the assay with SF-295 CNS, with HS 578T breast and with NCI/ADR-RES ovarian was above 100 µM throughout. Moreover, the TGI in the assay with UACC-257 melanoma, in the assay on SNB-19 CNS and in the assay with UACC-62 melanoma was above 100 µM throughout.
Take `CC1=NNC(=O)C1C1C(=O)NN=C(c2c[nH]c3ccccc23)C1Br` (stereo unspecified): the TGI is above 100 µM with SK-OV-3 ovarian; above 100 µM in the assay with EKVX NSCLC; above 100 µM in the assay with RPMI-8226 leukemia; 54.7 µM in the assay with SF-295 CNS; above 100 µM with HS 578T breast; above 100 µM in the assay with NCI/ADR-RES ovarian. The TGI with UACC-257 melanoma, in the assay with SNB-19 CNS and in the assay on UACC-62 melanoma was above 100 µM throughout.
Consider `Cc1ccc2c(c1)-c1nc(N)c(C#N)c(-c3ccc(Cl)cc3)c1CCS2(=O)=O`, for which the concentration for total growth inhibition (TGI) with SR leukemia was 65.6 µM; with HS 578T breast it was above 100 µM; with NCI/ADR-RES ovarian, above 100 µM; in the assay with UACC-257 melanoma, above 100 µM; in the assay on SNB-19 CNS it was above 100 µM; in the assay on UACC-62 melanoma it was above 100 µM.
In the case of `CCNCCNC(=O)c1ccc(I)cc1`, the TGI in the assay on SK-OV-3 ovarian, in the assay on SR leukemia, with EKVX NSCLC, in the assay on RPMI-8226 leukemia, in the assay with HS 578T breast and in the assay with NCI/ADR-RES ovarian was above 100 µM throughout. Also, the total growth inhibition concentration (TGI) in the assay with SNB-19 CNS and in the assay with UACC-62 melanoma was above 100 µM each time.
`CCOC(=O)c1ccc(-n2[nH]nc(C(N)=O)c2=O)cc1`: the TGI with SK-OV-3 ovarian, with EKVX NSCLC, in the assay on RPMI-8226 leukemia, in the assay on SF-295 CNS, in the assay with HS 578T breast and in the assay on NCI/ADR-RES ovarian was above 100 µM throughout. Also, the TGI with UACC-257 melanoma, in the assay with SNB-19 CNS and in the assay on UACC-62 melanoma was above 100 µM each time.
